pEC50: −log10 of the molar value.
System: Nrf2 transcriptional activity (pARE-Luc reporter) in HepG2 cells
Experiment: In vitro Nrf2 transcriptional activity measurement by ARE-dependent reporter assay in HepG2 cell
Assay type: cell-based, human
Details: Homo sapiens; HepG2 cells transfected with pARE-Luc, 4 hours at 37° C.; luciferase activity of Example 1-54 or Example 17-23 at 3.75 μM defined as 100%
Procedure: Test Example 1: In Vitro Nrf2 Transcriptional Activity Measurement by ARE-Dependent Reporter Assay in HepG2 Cell
A human liver cancer-derived cell line HepG2 was transfected with pGL4.37 vector (pARE-Luc, Promega Corp.) and incubated overnight at 37° C. in a humidified atmosphere containing 5% CO2. The cells were dissociated by trypsin treatment, inoculated to a 384-well plate supplemented with a test compound, and incubated at 37° C. for 4 hours. Then, Bright-Glo Reagent (Promega Corp.) was added to the plate, and luciferase activity was measured with Envision plate reader.
Luciferase activity obtained through the action of the compound of Example 1-54 or Example 17-23 at a concentration of 3.75 μM was defined as 100%. The luciferase activity of each well was converted to a response rate (%). The dose-response curve of the compound of each Example was prepared to calculate a 50% effective concentration (EC50).

| Structure (SMILES) | pEC50 |
| --- | --- |
| CO[C@@H]1CC2(CN(c3cc(Cl)c(C(=O)N4COc5c(cccc5-c5cc(N6C7CCC6COC7)c(C(=O)O)cc5F)C4)c(Cl)c3)C2)[C@H]1C (racemic) [Compound 1-86, 4-[3-[2,6-Dichloro-4-[rac-(6R,7R)-6-methoxy-7-methyl-2-azaspiro[3.3]heptan-2-yl]benzoyl]-2,4-dihydro-1,3-benzoxazin-8-yl]-5-fluoro-2-(3-oxa-8-azabicyclo[3.2.1]octan-8-yl)benzoic acid] | 8.96 |
| CO[C@H]1CC2(CN(c3cc(Cl)c(C(=O)N4COc5c(cccc5-c5cc(N6C7CCC6COC7)c(C(=O)O)cc5F)C4)c(Cl)c3)C2)[C@H]1C (racemic) [Compound 1-87, 4-[3-[2,6-Dichloro-4-[rac-(6R,7S)-6-methoxy-7-methyl-2-azaspiro[3.3]heptan-2-yl]benzoyl]-2,4-dihydro-1,3-benzoxazin-8-yl]-5-fluoro-2-(3-oxa-8-azabicyclo[3.2.1]octan-8-yl)benzoic acid] | 9.00 |
| CO[C@H]1C[C@H]2CC[C@@H](C1)N2c1cc(Cl)c(C(=O)N2COc3c(cccc3-c3cc(N4C5CCC4COC5)c(C(=O)O)cc3F)C2)c(Cl)c1 (racemic) [Compound 6-11, 4-[3-[2,6-Dichloro-4-[rac-(1R,3r,5S)-3-methoxy-8-azabicyclo[3.2.1]octan-8-yl]benzoyl]-2,4-dihydro-1,3-benzoxazin-8-yl]-5-fluoro-2-(3-oxa-8-azabicyclo[3.2.1]octan-8-yl)benzoic acid] | 8.82 |
| CO[C@H]1C[C@H]2CN(c3cc(Cl)c(C(=O)N4COc5c(cccc5-c5cc(N6C7CCC6COC7)c(C(=O)O)cc5F)C4)c(Cl)c3)C[C@H]21 (racemic) [Compound 6-12, 4-[3-[2,6-Dichloro-4-[rac-(1R,5S,6S)-6-methoxy-3-azabicyclo[3.2.0]heptan-3-yl]benzoyl]-2,4-dihydro-1,3-benzoxazin-8-yl]-5-fluoro-2-(3-oxa-8-azabicyclo[3.2.1]octan-8-yl)benzoic acid] | 8.41 |
| COC1CCC12CN(c1cc(Cl)c(C(=O)N3COc4c(cccc4-c4cc(N5C6CCC5COC6)c(C(=O)O)cc4F)C3)c(Cl)c1)C2 (racemic) [Compound 6-13, 4-[3-[2,6-Dichloro-4-(rac-7-methoxy-2-azaspiro[3.3]heptan-2-yl)benzoyl]-2,4-dihydro-1,3-benzoxazin-8-yl]-5-fluoro-2-(3-oxa-8-azabicyclo[3.2.1]octan-8-yl)benzoic acid] | 8.42 |
| COCCN1CCN(c2cc(Cl)c(C(=O)N3COc4c(cccc4-c4cc(N5CCOCC5C#N)c(C(=O)O)cc4F)C3)c(Cl)c2)CC1 (racemic) [Compound 20-10, rac-2-(3-Cyanomorpholin-4-yl)-4-[3-[2,6-dichloro-4-[4-(2-methoxyethyl)piperazin-1-yl]benzoyl]-2,4-dihydro-1,3-benzoxazin-8-yl]-5-fluorobenzoic acid] | 7.60 |
| O=C(O)c1cc(F)c(-c2cccc3c2OCN(C(=O)c2c(Cl)cc(OC4CCOC4)cc2Cl)C3)cc1N1C2CCC1COC2 (stereo in doubt) [Compound 4-36, 4-[3-[2,6-Dichloro-4-[(3R)-oxolan-3-yl]oxybenzoyl]-2,4-dihydro-1,3-benzoxazin-8-yl]-5-fluoro-2-(3-oxa-8-azabicyclo[3.2.1]octan-8-yl)benzoic acid] | 8.06 |
| O=C(O)c1cc(F)c(-c2cccc3c2OCN(C(=O)c2c(Cl)cc(N4CC5(CCCO5)C4)cc2Cl)C3)cc1N1C2CCC1COC2 [Compound 1-1, 4-[3-[2,6-Dichloro-4-(5-oxa-2-azaspiro[3.4]octan-2-yl)benzoyl]-2,4-dihydro-1,3-benzoxazin-8-yl]-5-fluoro-2-(3-oxa-8-azabicyclo[3.2.1]octan-8-yl)benzoic acid] | 8.55 |
| O=C(O)c1cc(F)c(-c2cccc3c2OCN(C(=O)c2c(Cl)cc(N4CC5(CCO5)C4)cc2Cl)C3)cc1N1C2CCC1COC2 [Compound 1-2, 4-[3-[2,6-Dichloro-4-(1-oxa-6-azaspiro[3.3]heptan-6-yl)benzoyl]-2,4-dihydro-1,3-benzoxazin-8-yl]-5-fluoro-2-(3-oxa-8-azabicyclo[3.2.1]octan-8-yl)benzoic acid] | 8.07 |
| O=C(O)c1cc(F)c(-c2cccc3c2OCN(C(=O)c2c(Cl)cc(N4CC5(CCOC5)C4)cc2Cl)C3)cc1N1C2CCC1COC2 [Compound 1-3, 4-[3-[2,6-Dichloro-4-(6-oxa-2-azaspiro[3.4]octan-2-yl)benzoyl]-2,4-dihydro-1,3-benzoxazin-8-yl]-5-fluoro-2-(3-oxa-8-azabicyclo[3.2.1]octan-8-yl)benzoic acid] | 8.24 |
| O=C(O)c1cc(F)c(-c2cccc3c2OCN(C(=O)c2c(Cl)cc(N4C5COCC4C5)cc2Cl)C3)cc1N1C2CCC1COC2 [Compound 1-5, 4-[3-[2,6-Dichloro-4-(3-oxa-6-azabicyclo[3.1.1]heptan-6-yl)benzoyl]-2,4-dihydro-1,3-benzoxazin-8-yl]-5-fluoro-2-(3-oxa-8-azabicyclo[3.2.1]octan-8-yl)benzoic acid] | 8.51 |
| O=C(O)c1cc(F)c(-c2cccc3c2OCN(C(=O)c2c(Cl)cc(N4CC5(CC(O)C5)C4)cc2Cl)C3)cc1N1C2CCC1COC2 [Compound 1-6, 4-[3-[2,6-Dichloro-4-(6-hydroxy-2-azaspiro[3.3]heptan-2-yl)benzoyl]-2,4-dihydro-1,3-benzoxazin-8-yl]-5-fluoro-2-(3-oxa-8-azabicyclo[3.2.1]octan-8-yl)benzoic acid] | 8.02 |
| O=C(O)c1cc(F)c(-c2cccc3c2OCN(C(=O)c2c(Cl)cc(N4CC5(C4)CC5(F)F)cc2Cl)C3)cc1N1C2CCC1COC2 [Compound 1-7, 4-[3-[2,6-Dichloro-4-(2,2-difluoro-5-azaspiro[2.3]hexan-5-yl)benzoyl]-2,4-dihydro-1,3-benzoxazin-8-yl]-5-fluoro-2-(3-oxa-8-azabicyclo[3.2.1]octan-8-yl)benzoic acid] | 8.70 |
| COC1(C(F)F)CN(c2cc(Cl)c(C(=O)N3COc4c(cccc4-c4cc(N5C6CCC5COC6)c(C(=O)O)cc4F)C3)c(Cl)c2)C1 [Compound 1-8, 4-[3-[2,6-Dichloro-4-[3-(difluoromethyl)-3-methoxyazetidin-1-yl]benzoyl]-2,4-dihydro-1,3-benzoxazin-8-yl]-5-fluoro-2-(3-oxa-8-azabicyclo[3.2.1]octan-8-yl)benzoic acid] | 8.66 |
| COC1CN(c2cc(Cl)c(C(=O)N3COc4c(cccc4-c4cc(N5C6CCC5COC6)c(C(=O)O)cc4F)C3)c(Cl)c2)C1(C)C (stereo not shown) [Compound 1-9, 4-[3-[2,6-Dichloro-4-(3-methoxy-2,2-dimethylazetidin-1-yl)benzoyl]-2,4-dihydro-1,3-benzoxazin-8-yl]-5-fluoro-2-(3-oxa-8-azabicyclo[3.2.1]octan-8-yl)benzoic acid] | 8.34 |
| O=C(O)c1cc(F)c(-c2cccc3c2OCN(C(=O)c2c(Cl)cc(N4CC(OC(F)F)C4)cc2Cl)C3)cc1N1C2CCC1COC2 [Compound 1-10, 4-[3-[2,6-Dichloro-4-[3-(difluoromethoxy)azetidin-1-yl]benzoyl]-2,4-dihydro-1,3-benzoxazin-8-yl]-5-fluoro-2-(3-oxa-8-azabicyclo[3.2.1]octan-8-yl)benzoic acid] | 8.51 |
| CC1(F)CN(c2cc(Cl)c(C(=O)N3COc4c(cccc4-c4cc(N5C6CCC5COC6)c(C(=O)O)cc4F)C3)c(Cl)c2)C1 [Compound 1-11, 4-[3-[2,6-Dichloro-4-(3-fluoro-3-methylazetidin-1-yl)benzoyl]-2,4-dihydro-1,3-benzoxazin-8-yl]-5-fluoro-2-(3-oxa-8-azabicyclo[3.2.1]octan-8-yl)benzoic acid] | 8.68 |
| O=C(O)c1cc(F)c(-c2cccc3c2OCN(C(=O)c2c(Cl)cc(N4CC(O)(C(F)(F)F)C4)cc2Cl)C3)cc1N1C2CCC1COC2 [Compound 1-12, 4-[3-[2,6-Dichloro-4-[3-hydroxy-3-(trifluoromethyl)azetidin-1-yl]benzoyl]-2,4-dihydro-1,3-benzoxazin-8-yl]-5-fluoro-2-(3-oxa-8-azabicyclo[3.2.1]octan-8-yl)benzoic acid] | 7.80 |
| O=C(O)c1cc(F)c(-c2cccc3c2OCN(C(=O)c2c(Cl)cc(N4CC5(CC5)C4)cc2Cl)C3)cc1N1C2CCC1COC2 [Compound 1-13, 4-[3-[4-(5-Azaspiro[2.3]hexan-5-yl)-2,6-dichlorobenzoyl]-2,4-dihydro-1,3-benzoxazin-8-yl]-5-fluoro-2-(3-oxa-8-azabicyclo[3.2.1]octan-8-yl)benzoic acid] | 8.62 |
| O=C(O)c1cc(F)c(-c2cccc3c2OCN(C(=O)c2c(Cl)cc(N4CC(OC(F)(F)F)C4)cc2Cl)C3)cc1N1C2CCC1COC2 [Compound 1-14, 4-[3-[2,6-Dichloro-4-[3-(trifluoromethoxy)azetidin-1-yl]benzoyl]-2,4-dihydro-1,3-benzoxazin-8-yl]-5-fluoro-2-(3-oxa-8-azabicyclo[3.2.1]octan-8-yl)benzoic acid] | 8.36 |
| CC1(C#N)CN(c2cc(Cl)c(C(=O)N3COc4c(cccc4-c4cc(N5C6CCC5COC6)c(C(=O)O)cc4F)C3)c(Cl)c2)C1 [Compound 1-15, 4-[3-[2,6-Dichloro-4-(3-cyano-3-methylazetidin-1-yl)benzoyl]-2,4-dihydro-1,3-benzoxazin-8-yl]-5-fluoro-2-(3-oxa-8-azabicyclo[3.2.1]octan-8-yl)benzoic acid] | 8.57 |
| O=C(O)c1cc(F)c(-c2cccc3c2OCN(C(=O)c2c(Cl)cc(N4CC(O)(c5ccccc5)C4)cc2Cl)C3)cc1N1C2CCC1COC2 [Compound 1-16, 4-[3-[2,6-Dichloro-4-(3-hydroxy-3-phenylazetidin-1-yl)benzoyl]-2,4-dihydro-1,3-benzoxazin-8-yl]-5-fluoro-2-(3-oxa-8-azabicyclo[3.2.1]octan-8-yl)benzoic acid] | 7.96 |
